Molecules are shown by their SMILES. Where two headings read alike, the source gives them in different places.

The target in one experiment is T1, CDK2/CyclinE1 (Homo sapiens, UniProt P24941).
T1 construct: purchased SignalChem C29-18G
The experiment can be described thus: Assay for inhibition of CDK2/CyclinE1 (Caliper microfluidic kinase assay). The format is biochemical. Particulars: read-out: CDK2 IC50. The gist of the method: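 Caliper microfluidic mobility-shift assay: 5 nM CDK2/CyclinE1, 100 μM ATP, 5 μM FL-18 peptide (5-FAM-QSPKKG-NH2) in pH 7.5 HEPES buffer with MgCl2, DTT, BSA, Triton X-100. Incubated 3 hours at room temperature, EDTA-stopped; IC50 from 4-parameter sigmoidal fit.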

A further experiment has as its target T2, CDK4/CyclinD1 (Homo sapiens, UniProt P11802).
T2 construct: purchased Thermofisher PR8064A
The experiment can be described thus: Assay for inhibition of CDK4/CyclinD1 (Caliper microfluidic kinase assay). The format is biochemical. The gist of the method: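 Caliper microfluidic mobility-shift assay tracking phosphorylation of 1 μM FL-34 peptide by 1 nM CDK4/CyclinD1 with 200 μM ATP in HEPES pH 7.5 buffer with 10 mM MgCl2. Reaction ran 3 h at room temperature, was stopped with EDTA, and IC50 came from a 4-parameter sigmoidal fit.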

For experiment [1], the system named is phosphorylation of Retinoblastoma Protein (pRb Ser807/811 or Ser780) in T47D cells. The experiment can be described thus: Inhibition of phosphorylation of retinoblastoma protein (pRb) in T47D cell (ELISA). The conditions noted are these: Homo sapiens, T47D, read-out: Phospho T47D Ser807 IC50, pRb Ser807 phosphorylation, T47D cells. The format is cell-based, human. The gist of the method: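 T47D cells in RPMI 1640 + 10% FBS, adhered overnight, then treated 24 h with 3-fold compound titrations (top concentration […]). Lysates assayed by sandwich ELISA for pRb Ser807/811 or Ser780 with HRP/TMB detection. IC50 from 4-parameter sigmoidal fit.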

In a further experiment the test system is T47D breast cancer cells. Nature of the experiment: Anti-proliferation assay in T47D cell (Cyquant, day 6). The experiment is classed as cell-based, human. Particulars: Homo sapiens, T47D, anti-proliferation, T47D cells; read-out: T47D IC50. The procedure, abridged:
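Cells were grown in RPMI 1640 with 10% FBS at 37 °C and dosed the day after plating at ten concentrations, 10 μM to 0.51 nM in 3-fold steps. CyQuant fluorescence (ex 485/em 535 nm) was read on day 6. IC50 was fitted from baseline-subtracted viability curves, with the baseline read after overnight culture.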

In a further experiment the target is T3, CDK6/CyclinD3 (Homo sapiens, UniProt Q00534).
T3 construct: purchased Carna 04-107
The experiment can be described thus: Assay for inhibition of CDK6/CyclinD3 (Caliper microfluidic kinase assay). The format is biochemical. The gist of the method:
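Caliper mobility-shift readout of FAM-labelled peptide (FL-34, 1 μM) phosphorylation by 2 nM CDK6/CyclinD3 at 300 μM ATP in HEPES pH 7.5 buffer with MgCl2, DTT; 3 h at room temperature, EDTA stop. IC50 from 4-parameter sigmoidal fit.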

T2 sequence (P11802 whole entry): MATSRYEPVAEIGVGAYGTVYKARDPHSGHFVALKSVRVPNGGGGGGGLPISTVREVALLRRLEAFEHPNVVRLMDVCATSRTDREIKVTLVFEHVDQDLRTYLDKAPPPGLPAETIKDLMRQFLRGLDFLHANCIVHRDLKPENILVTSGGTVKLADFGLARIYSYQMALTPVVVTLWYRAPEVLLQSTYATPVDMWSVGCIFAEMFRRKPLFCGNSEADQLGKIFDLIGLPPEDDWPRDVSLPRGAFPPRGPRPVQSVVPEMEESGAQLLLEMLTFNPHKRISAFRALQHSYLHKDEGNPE
T2 sequence (P24385 whole entry partner): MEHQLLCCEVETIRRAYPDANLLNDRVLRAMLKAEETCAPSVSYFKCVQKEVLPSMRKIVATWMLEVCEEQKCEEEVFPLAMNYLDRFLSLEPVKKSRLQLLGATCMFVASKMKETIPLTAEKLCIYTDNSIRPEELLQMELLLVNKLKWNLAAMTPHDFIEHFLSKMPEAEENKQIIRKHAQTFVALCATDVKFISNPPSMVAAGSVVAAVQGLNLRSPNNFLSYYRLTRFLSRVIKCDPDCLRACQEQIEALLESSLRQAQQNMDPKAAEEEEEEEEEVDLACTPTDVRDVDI
T3 sequence (Q00534 whole entry): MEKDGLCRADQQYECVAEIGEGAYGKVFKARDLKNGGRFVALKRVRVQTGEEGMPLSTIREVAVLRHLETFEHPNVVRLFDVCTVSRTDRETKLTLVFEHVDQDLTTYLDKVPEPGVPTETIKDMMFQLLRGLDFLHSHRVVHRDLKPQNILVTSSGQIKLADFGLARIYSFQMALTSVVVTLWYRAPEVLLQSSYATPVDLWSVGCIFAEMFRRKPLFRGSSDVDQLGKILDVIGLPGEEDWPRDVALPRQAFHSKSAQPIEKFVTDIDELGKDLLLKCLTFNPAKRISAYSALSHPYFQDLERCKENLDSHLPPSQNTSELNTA
T3 sequence (P30281 whole entry partner): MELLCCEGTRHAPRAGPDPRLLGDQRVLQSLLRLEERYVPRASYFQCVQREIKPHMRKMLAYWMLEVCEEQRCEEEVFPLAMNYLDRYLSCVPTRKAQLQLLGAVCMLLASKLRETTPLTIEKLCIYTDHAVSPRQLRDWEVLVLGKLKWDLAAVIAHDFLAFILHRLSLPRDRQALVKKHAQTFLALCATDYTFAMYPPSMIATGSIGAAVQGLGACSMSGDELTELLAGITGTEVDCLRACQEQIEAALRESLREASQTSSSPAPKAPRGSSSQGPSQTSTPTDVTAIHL

With `CC(C)n1cnc2c(F)nc(-c3nc(Nc4ccc(N5CCC(N(C)C)CC5=O)cn4)ncc3Cl)cc21` (stereo not drawn) [compound 278], the IC50 (commonly the point on the concentration scale where inhibition reaches its midpoint) is 100 to 1000 nM at CDK2/CyclinE1 (CDK2/CyclinE1, 100 μM ATP); less than 10 nM against CDK4/CyclinD1 (CDK4/CyclinD1, 200 μM ATP); less than 100 nM in experiment [1]; less than 100 nM in the experiment with T47D breast cancer cells; 10 to 100 nM at CDK6/CyclinD3 (CDK6/CyclinD3, 300 μM ATP).

Turning to `Cc1cnc(Nc2ccc(N3CCC(N(C)C)CC3=O)cn2)nc1-c1cc2c(ncn2C(C)C)c(F)n1` (stereo not drawn) [compound 279], the IC50 was 100 to 1000 nM at CDK2/CyclinE1 (CDK2/CyclinE1, 100 μM ATP); less than 10 nM on CDK4/CyclinD1 (CDK4/CyclinD1, 200 μM ATP); less than 100 nM in experiment [1]; less than 100 nM with T47D breast cancer cells; 10 to 100 nM on CDK6/CyclinD3 (CDK6/CyclinD3, 300 μM ATP).

With `CC(C)n1cnc2c(F)nc(-c3ccnc(Nc4ccc(N5CCC(C)(N)CC5=O)cc4)n3)cc21` (stereo not drawn) [compound 280], the IC50 at CDK2/CyclinE1 (CDK2/CyclinE1, 100 μM ATP) was less than 10 nM; against CDK4/CyclinD1 (CDK4/CyclinD1, 200 μM ATP), less than 10 nM; in experiment [1], less than 100 nM; with T47D breast cancer cells, less than 100 nM; on CDK6/CyclinD3 (CDK6/CyclinD3, 300 μM ATP), less than 10 nM.

As for `CC(C)n1cnc2c(F)nc(-c3ccnc(Nc4ccc(N5CCC(N(C)C)CC5=O)cc4)n3)cc21` (stereo not drawn) [compound 281], the concentration for half-maximal inhibition (IC50) on CDK2/CyclinE1 (CDK2/CyclinE1, 100 μM ATP) is less than 10 nM; on CDK4/CyclinD1 (CDK4/CyclinD1, 200 μM ATP) it was less than 10 nM; in experiment [1], less than 100 nM; in the experiment with T47D breast cancer cells it was less than 100 nM; against CDK6/CyclinD3 (CDK6/CyclinD3, 300 μM ATP), less than 10 nM.

In the case of `CC(C)n1cnc2c(F)nc(-c3ccnc(Nc4ccc(N5CCCNC5=O)cc4)n3)cc21` [compound 282], the IC50 on CDK2/CyclinE1 (CDK2/CyclinE1, 100 μM ATP) was less than 10 nM; at CDK4/CyclinD1 (CDK4/CyclinD1, 200 μM ATP), less than 10 nM; in experiment [1], less than 100 nM; in the experiment with T47D breast cancer cells, less than 100 nM; on CDK6/CyclinD3 (CDK6/CyclinD3, 300 μM ATP), less than 10 nM.

In the case of `CC(C)n1cnc2c(F)nc(-c3ccnc(Nc4ccc(N5CCCC(N(C)C)C5=O)cn4)n3)cc21` (stereo not drawn) [compound 283], the concentration for half-maximal inhibition (IC50) on CDK2/CyclinE1 (CDK2/CyclinE1, 100 μM ATP) was greater than 1000 nM; against CDK4/CyclinD1 (CDK4/CyclinD1, 200 μM ATP), less than 10 nM; in experiment [1], less than 100 nM; in the experiment with T47D breast cancer cells it was less than 100 nM; at CDK6/CyclinD3 (CDK6/CyclinD3, 300 μM ATP), less than 10 nM.

As to `CCN1CCN(Cc2ccc(Nc3nccc(-c4cc5c(ncn5C(C)C)c(F)n4)n3)nc2)CC1` [compound 285], the IC50 on CDK2/CyclinE1 (CDK2/CyclinE1, 100 μM ATP) is greater than 1000 nM; on CDK4/CyclinD1 (CDK4/CyclinD1, 200 μM ATP), less than 10 nM; in experiment [1], less than 100 nM; in the experiment with T47D breast cancer cells it was less than 100 nM; against CDK6/CyclinD3 (CDK6/CyclinD3, 300 μM ATP), 10 to 100 nM.

Take `CC(C)n1cnc2c(F)nc(-c3ccnc(Nc4ccc(N5CCNCC5)cn4)n3)cc21` [compound 286]: the IC50 at CDK2/CyclinE1 (CDK2/CyclinE1, 100 μM ATP) is 100 to 1000 nM; at CDK4/CyclinD1 (CDK4/CyclinD1, 200 μM ATP), less than 10 nM; in experiment [1] it was less than 100 nM; with T47D breast cancer cells, less than 100 nM; against CDK6/CyclinD3 (CDK6/CyclinD3, 300 μM ATP) it was 10 to 100 nM.

Consider `CC(C)n1cnc2c(F)nc(-c3ccnc(Nc4ccc(N5CCCC(N)C5=O)cc4)n3)cc21` (stereo not drawn) [compound 293], for which the IC50 on CDK2/CyclinE1 (CDK2/CyclinE1, 100 μM ATP) is 10 to 100 nM; on CDK4/CyclinD1 (CDK4/CyclinD1, 200 μM ATP), less than 10 nM; in experiment [1] it was less than 100 nM; in the experiment with T47D breast cancer cells it was less than 100 nM; against CDK6/CyclinD3 (CDK6/CyclinD3, 300 μM ATP) it was less than 10 nM.

As to `CCN1CC2CC1CN2c1ccc(Nc2nccc(-c3cc4c(ncn4C(C)C)c(OC)n3)n2)nc1` (stereo not drawn) [compound 312], the IC50 was greater than 1000 nM at CDK2/CyclinE1 (CDK2/CyclinE1); less than 10 nM against CDK4/CyclinD1 (CDK4/CyclinD1); less than 100 nM in experiment [1]; 100 to 500 nM in the experiment on T47D breast cancer cells; 10 to 100 nM against CDK6/CyclinD3 (CDK6/CyclinD3).

For `COc1nc(-c2ccnc(Nc3ccc(N4CCC(N5CCC5)CC4=O)cn3)n2)cc2c1ncn2C(C)C` (stereo not drawn) [compound 314], the IC50 is 10 to 100 nM on CDK2/CyclinE1 (CDK2/CyclinE1); less than 10 nM at CDK4/CyclinD1 (CDK4/CyclinD1); less than 100 nM in experiment [1]; less than 100 nM with T47D breast cancer cells; 10 to 100 nM against CDK6/CyclinD3 (CDK6/CyclinD3).

`COc1nc(-c2ccnc(Nc3ccc(N4CCC(N5CC(F)(F)C5)CC4=O)cn3)n2)cc2c1ncn2C(C)C` (stereo not drawn) [compound 315]: the IC50 is 100 to 1000 nM on CDK2/CyclinE1 (CDK2/CyclinE1); less than 10 nM on CDK4/CyclinD1 (CDK4/CyclinD1); less than 100 nM in experiment [1]; 100 to 500 nM in the experiment on T47D breast cancer cells; 10 to 100 nM against CDK6/CyclinD3 (CDK6/CyclinD3).

Source of the values: US20220296595A1, “CDK INHIBITORS” (QILU REGOR THERAPEUTICS INC., priority 2019, published 2022).
